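Briefly, cells in 96-well plates were exposed to five compound concentrations for 48 h, and endpoints were estimated by linear interpolation. TGI is the concentration that stops growth completely.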

This note sets out measurements from PubChem BioAssay (NCI).

Test systems include MALME-3M melanoma; PC-3 prostate; HCT-15 colon; K-562 leukemia; OVCAR-8 ovarian; SF-268 CNS; TK-10 renal; CCRF-CEM leukemia; SK-MEL-2 melanoma; NCI-H522 lung.
Holding throughout (assay): growth of human tumour cells (NCI), 48 h

Turning to `CC1(C)CC(C#Cc2ccccc2)CC(C)(C)N1O`, the TGI with MALME-3M melanoma was 32.9 µM; in the assay with PC-3 prostate, 29.4 µM; in the assay on HCT-15 colon it was 29 µM; with K-562 leukemia, over 100 µM; in the assay with OVCAR-8 ovarian, 64 µM; with SF-268 CNS, 83.1 µM. For the same compound, the TGI in the assay on TK-10 renal is 40.5 µM; in the assay on CCRF-CEM leukemia it was over 100 µM; with SK-MEL-2 melanoma it was 43.6 µM.
With `COc1cc([N+](=O)[O-])c(OC)c2c(Nc3ccc(S(=O)(=O)O)c4cc(S(=O)(=O)O)cc(S(=O)(=O)O)c34)cc(C)nc12`, the TGI with MALME-3M melanoma, in the assay with PC-3 prostate, in the assay with NCI-H522 lung, with OVCAR-8 ovarian, in the assay on SF-268 CNS and in the assay with TK-10 renal was over 100 µM in each case. In addition, the TGI with CCRF-CEM leukemia and in the assay with SK-MEL-2 melanoma was over 100 µM throughout.
For `CSc1nc2c(ncn2C2OC(CO)C(O)C(O)C2O)c(=O)[nH]1` (centres undefined), the TGI with MALME-3M melanoma, in the assay on NCI-H522 lung, in the assay on HCT-15 colon, in the assay with K-562 leukemia, with OVCAR-8 ovarian and in the assay with SF-268 CNS was over 100 µM each time. The TGI in the assay on CCRF-CEM leukemia and in the assay with SK-MEL-2 melanoma was over 100 µM throughout.
For `C=C1C(=O)C23C(O)CC4C5(C)CCCC4(C(O)OC5)C2C(OC(C)=O)CC1C3O` (centres undefined), the TGI in the assay with MALME-3M melanoma was 28.8 µM; with NCI-H522 lung it was 3.64 µM; with HCT-15 colon, 27.4 µM; with K-562 leukemia, 11.7 µM; in the assay with OVCAR-8 ovarian it was 14.1 µM; in the assay on SF-268 CNS, 32.4 µM. In addition, the TGI turned out to be 23.1 µM in the assay on TK-10 renal, 10.7 µM in the assay with CCRF-CEM leukemia and 30.3 µM in the assay on SK-MEL-2 melanoma.
Take `CCOC(=O)c1c(SCCN2CCOCC2)n(-c2ccccc2)c(=S)n(-c2ccccc2)c1=O`: the TGI with MALME-3M melanoma was over 100 µM; in the assay with NCI-H522 lung, over 100 µM; with HCT-15 colon, 45.7 µM; in the assay with K-562 leukemia, 38 µM; with OVCAR-8 ovarian it was over 100 µM; in the assay on SF-268 CNS, over 100 µM. For the same compound, the TGI in the assay with TK-10 renal is over 100 µM; in the assay with CCRF-CEM leukemia, 99 µM; with SK-MEL-2 melanoma, over 100 µM.
Regarding `CC(C)=CCC[C@@H](C)C1=C(O)C(N)=C(C)C(=O)C1=O`, the TGI with MALME-3M melanoma was over 100 µM; in the assay with PC-3 prostate, over 100 µM; in the assay on HCT-15 colon, over 100 µM; with K-562 leukemia, over 100 µM; with OVCAR-8 ovarian it was over 64.8 µM; in the assay on SF-268 CNS, over 100 µM. The TGI with TK-10 renal, with CCRF-CEM leukemia and with SK-MEL-2 melanoma was over 100 µM in each case.
Consider `CC#CC(O)(C(=O)OC1CC(C)N(C)C(C)(C)C1)C1CCCC1` (centres undefined), for which the TGI with MALME-3M melanoma, with PC-3 prostate, in the assay with NCI-H522 lung, in the assay with HCT-15 colon, in the assay on K-562 leukemia and in the assay with OVCAR-8 ovarian was over 100 µM in each case. In addition, the TGI in the assay with SF-268 CNS, in the assay on TK-10 renal and in the assay with CCRF-CEM leukemia was over 100 µM in each case.
As for `CON(C)C(=O)C1CCCO1` (centres undefined), the TGI in the assay with PC-3 prostate, with NCI-H522 lung, in the assay with HCT-15 colon, in the assay with K-562 leukemia, in the assay on OVCAR-8 ovarian and in the assay with SF-268 CNS was over 100 µM throughout. Also, the TGI in the assay on TK-10 renal, with CCRF-CEM leukemia and in the assay on SK-MEL-2 melanoma was over 100 µM in each case.
For the compound `C=CC(=O)N1C/C(=C\c2ccc(Cl)cc2)C(=O)/C(=C/c2ccc(Cl)cc2)C1`, the TGI stood at 3.84 µM in the assay with MALME-3M melanoma; 0.751 µM in the assay with PC-3 prostate; 0.497 µM in the assay with HCT-15 colon; 3.84 µM in the assay with OVCAR-8 ovarian; 0.617 µM in the assay with SF-268 CNS; 4.01 µM in the assay on TK-10 renal. Further, the TGI in the assay on SK-MEL-2 melanoma came out at 2.85 µM.
`CC1(C)OC2COC3([C@@H]4OC(C)(C)O[C@@H]4CO)OC(C)(C)OC3C2O1` (some centres undefined): the TGI in the assay with PC-3 prostate, in the assay on HCT-15 colon, in the assay on K-562 leukemia, with OVCAR-8 ovarian, with CCRF-CEM leukemia and in the assay with SK-MEL-2 melanoma was over 100 µM each time.
As to `CCOC(=O)C1CCC(=O)N1C(=O)c1ccccc1Cl` (centres undefined), the TGI with MALME-3M melanoma, with PC-3 prostate, in the assay on NCI-H522 lung, with HCT-15 colon, in the assay with K-562 leukemia and in the assay on OVCAR-8 ovarian was over 100 µM in each case. In addition, the TGI in the assay with SF-268 CNS, in the assay with TK-10 renal and in the assay on CCRF-CEM leukemia was over 100 µM in each case.
Regarding `COc1ccc(/C=N/n2c(C)nc3c(sc(=S)n3-c3ccccc3)c2=O)cc1`, the TGI with NCI-H522 lung was 46.4 µM; in the assay on K-562 leukemia, 81.2 µM; in the assay with OVCAR-8 ovarian, over 100 µM; with SF-268 CNS, over 100 µM; with TK-10 renal, over 100 µM; in the assay on CCRF-CEM leukemia, 54.2 µM.
`CN1CCN(C2=C(Cl)C3(OCCS3)C(F)(F)C2(F)F)CC1` (centres undefined): the TGI in the assay on MALME-3M melanoma, in the assay on NCI-H522 lung, in the assay on HCT-15 colon, in the assay on K-562 leukemia, with OVCAR-8 ovarian and in the assay on SF-268 CNS was over 100 µM throughout. The TGI in the assay on TK-10 renal, in the assay with CCRF-CEM leukemia and in the assay with SK-MEL-2 melanoma was over 100 µM each time.
Regarding `COc1cc(/C=C2\CCC(C)/C(=C\c3cc(OC)c(OC)c(OC)c3)C2=O)cc(OC)c1OC` (centres undefined), the TGI in the assay on PC-3 prostate is 11.1 µM; with HCT-15 colon it was 6.57 µM; with K-562 leukemia, 6.26 µM; with OVCAR-8 ovarian, 9.52 µM; in the assay with SF-268 CNS it was 34.4 µM; in the assay on TK-10 renal, 14 µM. In addition, the TGI in the assay with CCRF-CEM leukemia is 4.1 µM; in the assay with SK-MEL-2 melanoma it was 3.37 µM.
As to `O=[N+]([O-])c1ccc2c(c1)c(N=NC(=S)Nc1ccc(Cl)cc1)c(O)n2CN1CCOCC1`, the TGI is 18.8 µM in the assay with MALME-3M melanoma; 21.9 µM with PC-3 prostate; 23.2 µM in the assay on NCI-H522 lung; 11.4 µM with HCT-15 colon; 23.4 µM in the assay on OVCAR-8 ovarian; 16.5 µM in the assay with SF-268 CNS. Also, the results for the TGI in the assay on TK-10 renal, in the assay with CCRF-CEM leukemia and in the assay with SK-MEL-2 melanoma were 24.5 µM, 28 µM and 26.3 µM, respectively.
